# Test results: PMC6407913, “DREADD Agonist 21 Is an Effective Agonist for Muscarinic-Based DREADDs in Vitro and in Vivo” (ACS Pharmacology & Translational Science, 2018)
# Changes are numbered by the printed parent chain. Read-outs that look alike come from different tables or passages of the source.
# Experiments:
# hM4Di [1] = molecular target: T1, hM4Di (Homo sapiens, UniProt P08173, A203G/Y113C); assay: whole-cell [3H]NMS competition binding
# T1 sequence (P08173 1-479 Y113C/A203G): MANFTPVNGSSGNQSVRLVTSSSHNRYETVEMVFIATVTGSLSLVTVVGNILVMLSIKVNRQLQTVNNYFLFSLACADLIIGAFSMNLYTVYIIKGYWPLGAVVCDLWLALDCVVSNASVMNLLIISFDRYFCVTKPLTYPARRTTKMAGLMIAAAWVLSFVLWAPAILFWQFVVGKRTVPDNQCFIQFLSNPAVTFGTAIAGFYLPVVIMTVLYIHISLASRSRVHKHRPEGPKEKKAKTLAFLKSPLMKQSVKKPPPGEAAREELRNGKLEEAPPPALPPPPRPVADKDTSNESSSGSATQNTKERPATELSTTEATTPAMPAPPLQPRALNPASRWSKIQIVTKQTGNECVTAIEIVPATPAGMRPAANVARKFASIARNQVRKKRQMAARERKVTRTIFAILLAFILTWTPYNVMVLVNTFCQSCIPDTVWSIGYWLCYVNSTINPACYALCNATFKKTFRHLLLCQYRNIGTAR
# [2] = set-up: method as in PMID 28324647; settings: following systemic administration of 10 mg/kg CNO; cited from earlier work
# [3] = tested on: hM4Di expressed in PVH SIM1 neurons; assay: food intake, hM4Di in PVH SIM1 neurons (Sim1-Cre mice)
# hM4Di [4] = molecular target: T1, hM4Di; assay: ERK1/2 phosphorylation (pERK1/2) assay
# hM1 [5] = molecular target: T2, hM1 (Homo sapiens, UniProt P11229); assay: ERK1/2 phosphorylation (pERK1/2) assay; assay type: cell-based; settings: wildtype hM1
# T2 sequence (P11229 1-460): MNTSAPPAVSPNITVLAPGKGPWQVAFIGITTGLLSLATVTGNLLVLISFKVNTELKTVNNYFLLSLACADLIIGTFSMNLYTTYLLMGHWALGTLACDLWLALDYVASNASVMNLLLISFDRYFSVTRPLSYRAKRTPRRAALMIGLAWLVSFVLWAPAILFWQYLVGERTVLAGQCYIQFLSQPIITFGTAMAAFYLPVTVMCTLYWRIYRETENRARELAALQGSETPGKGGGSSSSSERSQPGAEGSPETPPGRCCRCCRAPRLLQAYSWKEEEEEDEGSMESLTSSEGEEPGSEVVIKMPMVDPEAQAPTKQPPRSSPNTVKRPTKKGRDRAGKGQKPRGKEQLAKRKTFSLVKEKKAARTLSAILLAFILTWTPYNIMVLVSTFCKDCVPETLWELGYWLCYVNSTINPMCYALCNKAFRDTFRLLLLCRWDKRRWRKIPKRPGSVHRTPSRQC
# [6] = cited from earlier work
# hM1Dq [7] = molecular target: T3, hM1Dq (Homo sapiens, UniProt P11229, A196G/Y106C); assay: whole-cell [3H]NMS competition binding
# T3 sequence (P11229 1-460 Y106C/A196G): T2 sequence (P11229 1-460) with Y106C, A196G
# hM1 [8] = molecular target: T2, hM1; assay: IP-One accumulation assay; assay type: cell-based; settings: wildtype hM1
# hM4Di [9] = molecular target: T1, hM4Di; assay: inhibition of isoproterenol-stimulated cAMP production; assay type: cell-based; set-up: expressed in transfected cells; settings: inhibition of isoproterenol elevated cAMP, mean (±SEM)
# hM4 [10] = molecular target: T4, hM4 (Homo sapiens, UniProt P08173); assay: whole-cell [3H]NMS competition binding; settings: hM4, FlpIn CHO cells, mean (±SEM)
# T4 construct: HA (hemagglutinin); expressed in transfected cells
# T4 sequence (P08173 1-479): T1 sequence (P08173 1-479 Y113C/A203G) with C113Y, G203A
# hM3Dq = molecular target: T5, hM3Dq (Homo sapiens, UniProt P20309, A239G/Y149C); assay: Gq-mediated calcium release (FLIPR) assay; assay type: cell-based; settings: CHO cells, mean ± SEM
# T5 construct: expressed in transfected cells
# T5 sequence (P20309 whole entry Y149C/A239G): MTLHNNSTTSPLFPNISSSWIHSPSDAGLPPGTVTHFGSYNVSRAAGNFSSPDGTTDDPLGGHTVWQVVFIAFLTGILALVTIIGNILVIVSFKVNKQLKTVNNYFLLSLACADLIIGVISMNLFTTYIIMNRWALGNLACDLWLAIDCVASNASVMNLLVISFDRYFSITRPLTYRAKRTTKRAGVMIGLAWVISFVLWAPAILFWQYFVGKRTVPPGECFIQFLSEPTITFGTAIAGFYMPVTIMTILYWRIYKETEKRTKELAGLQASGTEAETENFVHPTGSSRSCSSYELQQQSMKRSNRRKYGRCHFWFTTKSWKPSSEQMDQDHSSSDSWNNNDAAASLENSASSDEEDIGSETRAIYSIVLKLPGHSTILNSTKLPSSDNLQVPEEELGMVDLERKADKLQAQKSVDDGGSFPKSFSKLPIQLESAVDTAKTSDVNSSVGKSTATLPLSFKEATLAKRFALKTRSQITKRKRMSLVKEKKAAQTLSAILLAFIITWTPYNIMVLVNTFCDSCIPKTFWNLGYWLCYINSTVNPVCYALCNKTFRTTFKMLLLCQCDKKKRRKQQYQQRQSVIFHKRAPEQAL
# hM1 [11] = molecular target: T2, hM1; assay: whole-cell [3H]NMS competition binding; settings: hM1, FlpIn CHO cells, mean (±SEM)
# hM1Dq [12] = molecular target: T3, hM1Dq; assay: ERK1/2 phosphorylation (pERK1/2) assay
# hM1Dq [13] = molecular target: T3, hM1Dq; assay: IP-One accumulation assay
# [14] = tested on: hM3Dq expressed in ARC AgRP neurons; assay: food intake, hM3Dq in ARC AgRP neurons (Agrp-ires-Cre mice)
# [15] = brain and plasma exposure after i.p. administration; assay type: in vivo, mice; settings: i.p. 0.1, 1 and 10 mg/kg, 30 min after administration
# hM4 [16] = molecular target: T4, hM4; assay: inhibition of isoproterenol-stimulated cAMP production; assay type: cell-based; settings: hM4, inhibition of isoproterenol elevated cAMP, mean (±SEM)
structure (smiles),measurement,setting,value
"CC(=O)OCC[N+](C)(C)C [ACh, acetylcholine]",reduction in binding affinity at hM4Di vs wildtype,hM4Di [1]; hM4Di vs hM4,> 10 fold
"Clc1ccc2c(c1)N=C(N1CCNCC1)c1ccccc1N2 [NDMC, N-desmethylclozapine]",level in cerebrospinal fluid (CSF),[2],43 nM
"C[N+]1([O-])CCN(C2=Nc3cc(Cl)ccc3Nc3ccccc32)CC1 [CNO, clozapine-N-oxide]","food intake, light cycle, sated mice","[3]; SIM1-Cre mice with AAV-DIO-hM4Di-mCherry, i.p.",increases feeding behavior in sated mice
same,food intake in control mice,[3]; wildtype (non-Cre-expressing) littermates injected with AAV-DIO-hM4Di-mCherry,neither C21 nor CNO ligand influenced food intake
same,pEC50 pERK,"hM4Di [4]; hM4Di, CHO cells, mean (±SEM)",6.89 (±0.12) N = 3
same,agonist activity in pERK1/2 assay,hM1 [5],no agonist activity
same,metabolic transformation to clozapine,"[6]; humans, nonhuman primates and guinea pigs",approximately 10%
same,metabolic transformation to clozapine,[6]; rodents,a few percent
same,higher binding affinity at hM1Dq than at wildtype hM1,hM1Dq [7]; hM1Dq vs hM1,> 10 fold
same,pKi,"hM1Dq [7]; hM1Dq, FlpIn CHO cells, [3H]-NMS, mean (±SEM)",6.74 (±0.10) N = 9
same,agonist activity in IP1 assay,hM1 [8],no agonist activity
same,higher binding affinity at hM4Di than at wildtype hM4,hM4Di [1]; hM4Di vs hM4,> 10 fold
same,pKi,"hM4Di [1]; hM4Di, FlpIn CHO cells, [3H]-NMS, mean (±SEM)",6.30 (±0.22) N = 3
same,pEC50 cAMP,hM4Di [9],7.29 (±016) N = 4
same,pKi,hM4 [10],4.85 (±0.05) N = 3
same,pEC50 calcium mobilization,hM3Dq,7.26±0.07
same,pKi,hM1 [11],5.10 (±0.03) N = 7
same,pEC50 pERK,"hM1Dq [12]; hM1Dq, CHO cells, mean (±SEM)",7.70 (±0.25) N = 11
same,pEC50 IP1,"hM1Dq [13]; hM1Dq, CHO cells, mean (±SEM)",8.61 (±0.03) N = 10
same,"food intake, light cycle, sated mice","[14]; AgRP-ires-Cre mice with AAV-DIO-hM3Dq-mCherry, i.p.",increases feeding behavior in sated mice
same,food intake in control mice,[14]; wildtype (non-Cre-expressing) littermates injected with AAV-DIO-hM3Dq-mCherry,neither C21 nor CNO affected feeding behavior
"CN1CCN(C2=Nc3cc(Cl)ccc3Nc3ccccc32)CC1 [clozapine, reference compound]",level in cerebrospinal fluid (CSF),[2],34 nM
CN1CCN(C2=Nc3ccccc3Cc3ccccc32)CC1 [perlapine],brain and plasma levels,[15],measurable brain and plasma levels
same,metabolism to clozapine,[15],no evidence of metabolism to clozapine
same,EC50,hM4Di [4],53.7 nM
same,agonist activity in pERK1/2 assay,hM1 [5],no agonist activity
same,Ki,hM1Dq [7],26.3 nM
same,EC50,hM4 [16],56.2 nM
same,agonist activity in IP1 assay,hM1 [8],no agonist activity
same,Ki,hM4Di [1],67.6 nM
same,EC50,hM4Di [9],63.1 nM
same,Ki,hM4 [10],263 nM
same,EC50,hM3Dq; read-out: pEC50 calcium mobilization (converted),8.32 nM
same,Ki,hM1 [11],91.2 nM
same,EC50,hM1Dq [12],158 nM
same,EC50,hM1Dq [13],4.17 nM
